Test results published in the NIST ThermoML archive (doi:10.1016/j.tca.2012.10.004).

What was measured:
[1] = 101 kPa, Liquid, Pycnometric method
[2] = relative permittivity at zero frequency (dimensionless); conditions: 101 kPa, Liquid, Coaxial cylinder capacitor
[3] = refractive index (Na D-line) (dimensionless); conditions: 101.33 kPa, Liquid, Standard Abbe refractometry
[4] = refractive index (Na D-line) (dimensionless); xn = mol fraction of the nth substance listed; conditions: 101 kPa, Liquid, Standard Abbe refractometry, x2 = 0
[5] = xn = mol fraction of the nth substance listed; conditions: 101 kPa, Liquid, Pycnometric method, x2 = 0
[6] = relative permittivity at zero frequency (dimensionless); xn = mol fraction of the nth substance listed; conditions: 101 kPa, Liquid, Coaxial cylinder capacitor, x2 = 0

CN(CCO)CCO [N-methyldiethanolamine]
Conditions	mass density, [1] [kg/m3]	refractive index, [3]	relative permittivity at zero frequency, [2]
293.15 K	1041.6	1.46935	22.9
298.15 K	1037.9	1.46724	22.4
303.15 K	1034.1	1.46532	21.8
308.15 K	1030.3	1.4631	21.3
313.15 K	1026.5	1.46074	20.8
318.15 K	1022.7	1.45892	20.3
323.15 K	1018.9	1.45708	19.8
328.15 K	1015	1.45513	19.3

O=S1(=O)CCCC1 [sulfolane]
Conditions	mass density, [1] [kg/m3]	refractive index, [3]	relative permittivity at zero frequency, [2]
293.15 K	1270.8	1.4854	44.5
298.15 K	1266.5	1.4836	44
303.15 K	1262	1.4814	43.4
308.15 K	1257.6	1.4796	42.8
313.15 K	1253.2	1.478	42.2
318.15 K	1248.7	1.4762	41.6
323.15 K	1244.2	1.4744	41.1
328.15 K	1240.3	1.4726	40.4

O=S1(=O)CCCC1 [sulfolane] + CN(CCO)CCO
Conditions	mass density, [5] [kg/m3]	refractive index, [4]	relative permittivity at zero frequency, [6]
293.15 K	1270.8	1.4854	44.5
298.15 K	1266.5	1.4836	44
303.15 K	1262	1.4814	43.4
308.15 K	1257.6	1.4796	42.8
313.15 K	1253.2	1.478	42.2
318.15 K	1248.7	1.4762	41.6
323.15 K	1244.2	1.4744	41.1
328.15 K	1240.3	1.4726	40.4
